Data on 24 compounds can be found in patent publication US4159328A, “Tetrahydro-1,3,5-thiadiazin-4-one derivative” (Nihon Nohyaku Co., Ltd., priority 1977, dated 1979).

The subject of series [1] is cirrus red mite (Panonychus citri McGregor). Description: Test Example 4: activity to citrus red mite (Rothamstead method). The class given is in vivo. Also noted: concentration or dose not given beside the values. The conditions noted are these: two days after treatment, 25° C.; 2880 min. The method, then:
Activity to cirrus red mite (Panonychus citri McGregor).
Testing method: The test was performed by Rothamstead method. A test composition was sprayed by means of a spray gun over grapefruit leaves infested with citrus red mites. After air-drying the grapefruit was left standing in a constant temperature cabinet at 25° C. Two days after the treatment, the number of survived mites was counted to calculate the mortality.

Series [2] deals with larvae of house mosquito (Culex pipiens pallens Coquillett). Description: Test Example 6: insecticidal activity to larvae of house mosquito. The class given is in vivo. The conditions noted are these: 120 h. The method, boiled down: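 Twenty first-instar Culex pipiens pallens larvae placed with feed in test composition diluted in deionized water to 10 ppm. Kept at 25 °C, and mortality counted five days after treatment.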

Series [3] deals with larvae of 28-spotted lady beetle (Epilachna vigintioctopunctana Fabricius). The experiment in a line: Test Example 8: insecticidal activity against larvae of 28-spotted lady beetle. The class given is in vivo. The conditions noted are these: 120 h. The method, boiled down:
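Tomato leaflets dipped 30 s in 100 ppm test composition, air-dried, and placed in Petri dishes with seven second-instar larvae at 25° C. Mortality scored five days after treatment, two replicates.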

The subject of series [4] is larvae of bug. (Togo hemipterus Scott). The experiment in a line: Test Example 9: insecticidal activity against larvae of bug. The class given is in vivo. The settings on record: 120 h, 10 ppm, first-instar larvae, 25° C., five days, read-out: Mortality. The method, then:
Insecticidal activity against larvae of bug. (Togo hemipterus Scott).
Test method: Into a glass tube (1.6 cm in internal diameter and 9 cm in length), was added 1 ml of a test composition in 10 ppm concentration just to moisten the absorbent cotton. Five rice seeds and five first-instar larvae were introduced into the glass tube and the tube end was covered with a piece of Japanese paper. The glass tube was kept in a constant temperature cabinet at 25° C. Five days after treatment, the dead-and-survival was inspected to calculate the mortality (3-replication test).

Series [5] deals with larvae of green rice leafhopper (Nephotettix cincticeps Uhler). Description: Test Example 5: activity against larvae of green rice leafhopper. The settings on record: 168 h, 400 ppm, second-instar larvae, 25° C., seven days after treatment, read-out: Mortality. In kind it is in vivo. The method, boiled down:
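Rice seedlings at 1.5 leaf age dipped 30 seconds in 400 ppm test composition, air-dried, then infested with five second-instar larvae. Kept at 25° C; mortality scored seven days after treatment, three replicates.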

The test system of series [6] is larvae of brown planthopper (Nilaparvata lugens Stahl). Description: Test Example 1: insecticidal activity against larvae of brown planthopper. The class given is in vivo. The conditions noted are these: 120 h, third-instar larvae, 25° C., 5 days after treatment. The method, boiled down: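 Rice seedlings at 1.5-leaf stage were dipped for 30 s in a 400 ppm test composition, air-dried, and infested with third-instar N. lugens larvae. After holding at 25 °C, mortality was scored 5 or 7 days post-treatment from three replicates.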

Series [7] has as its system larvae of diamond-back moth (Plutilla xylostella Linn'e). The experiment in a line: Test Example 10: insecticidal activity against larvae of diamond-back moth. The class given is in vivo. The settings on record: 400 ppm, first-instar larvae, three days; 4320 min. The source says:
Insecticidal activity against larvae of diamond-back moth (Plutilla xylostella Linn'e). Testing method: A test composition of 400 ppm concentration was sprayed over the pot-planted chinese cabbage in a greenhouse by means of a spray gun. After air-drying, the chinese cabbage was infested with 10 first-instar larvae of diamond-back moth and was left standing in the greenhouse. Three days after the treatment, the dead-and-survival was inspected to calculate the mortality (3-replication test).

Series [8] concerns two-spotted spider mite (Tetranychus urticae Koch). The experiment in a line: Test Example 3: activity to two-spotted spider mite. The conditions noted are these: 120 h, 1,000 ppm, 5 days after treatment. In kind it is in vivo. The source says: Activity to two-spotted spider mite (Tetranychus urticae Koch).
Testing method: Two-spotted spider mites were set free on the pot-planted soybean in a greenhouse. On the next day, a test composition of 1,000 ppm concentration was sprayed over the soybean by means of a spray gun. Two days or five days after the treatment, dead-and-survival was inspected to calculate the mortality.

Series [9] deals with adult rust-red-flour beetle (Tribolium castaneum Herbst). Description: Test Example 7: insecticidal activity to adult rust-red-flour beetle. In kind it is in vivo. The protocol:
Insecticidal activity to adult rust-red-flour beetle (Tribolium castaneum Herbst).
Testing method: Into a 9-cm Petri dish covered on the bottom with a piece of filter paper, was introduced 7 ml of a test composition of 400 ppm concentration. Ten adult rust-red flour beetles were released in the Petri dish and left standing in a constant temperature cabinet at 25° C. After 24 hours, the dead-and-survival was inspected to calculate the mortality.

Series [10] relates to larvae of white-backed planthopper (Sogatella furcifera Horvath). Description: Test Example 2: insecticidal activity against larvae of white-backed planthopper. The class given is in vivo. The settings on record: 168 h, 400 ppm, first-instar larvae, 25° C., seven days after treatment, read-out: Mortality. The method, boiled down: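 Rice seedlings at 1.5-leaf stage were dipped 30 s in 400 ppm test composition, air-dried, and infested with five first-instar larvae. Tubes were held at 25°C, and mortality was scored at 7 days from triplicate tests.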

Series [11] can be described thus: mammalian acute toxicity. The settings on record: mouse, in vivo, mice, male. The method, then: For example, 2-t-butylimino-3-isopropyl-5-phenyltetrahydro-1,3,5-thiadiazin-4-one (compound No. 145) and 2-t-butylimino-3-isopropyl-5-p-tolyltetrahydro-1,3,5-thiadiazin-4-one (compound No. 318) have LD50 (mice, male) of 10,000 mg/kg or higher. Many other compounds of this invention have LD50 (mice, male) of 5,000 mg/kg or higher.

Series [12] relates to 5th-instar larvae of brown planthopper. The experiment in a line: mortality in 7 days after spraying on 5th-instar larvae of brown planthopper. In kind it is in vivo. The conditions noted are these: Nilaparvata lugens, 168 h.
[13] abbreviates: 400 ppm, adults, 25° C., 24 hours, read-out: Mortality.

Read-outs that look alike come from different tables or passages of the source.

Usually mortality stands for the share of the test organisms that died. As to `CCN1C(=O)N(c2ccccc2)CSC1=NC(C)(C)C` [Compound 131, 2-t-Butylimino-3-ethyl-5-phenyl-tetrahydro-1,3,5-thiadiazin-4-one], the Mortality in series [1] was determined as 100%. Moreover, the mortality at 10 ppm in [2] and in series [4] was 100% each time. In series [3], this compound returned a mortality at 100 ppm of 100%. Besides, the mortality at 400 ppm in [5] and in series [6] was 100% in each case.

In [1], `CCCN1C(=O)N(c2ccccc2)CSC1=NC(C)C` [Compound 135] registered a Mortality of 100%. For the same compound, the mortality at 10 ppm in series [2] and in series [4] was 100% throughout. Also, the mortality at 100 ppm in series [3] was found to be 100%. Besides, in series [6], the mortality at 400 ppm was 100%.

For `COCCN1C(=O)N(c2ccc(Cl)cc2)CSC1=NC(C)C` [Compound 207], the Mortality in series [7] was 100%.

In series [7], `CC(C)(C)N=C1SCN(c2ccc(Cl)cc2)C(=O)N1C1CCCCC1` [Compound 208] showed a Mortality of 80%.

In series [2], `CN=C1SCN(c2cccc(Cl)c2)C(=O)N1C` [Compound 213] gave a mortality at 10 ppm of 100%. In addition, the mortality at 1000 ppm in [8] was 100%. Also, the mortality at 400 ppm in series [9] (setting [13]) and in series [6] was 100% in each case.

On to `CCN1C(=O)N(c2cccc(Cl)c2)CSC1=NC(C)(C)C` [Compound 216, 2-t-Butylimino-3-ethyl-5-(m-chlorophenyl)-tetrahydro-1,3,5-thiadiazin-4-one], for which the mortality at 10 ppm in series [4] amounted to 100%. This compound gave a mortality at 1000 ppm in series [8] of 70%. The mortality at 400 ppm in series [9] (setting [13]) and in series [6] was 100% each time.

`C=CCN1C(=O)N(c2cccc(Cl)c2)CSC1=NC(C)C` [Compound 217, 2-Isopropylimino-3-allyl-5-(m-chlorophenyl)-tetrahydro-1,3,5-thiadiazin-4-one]: the mortality at 10 ppm in series [4] turned out to be 100%. The compound further yielded a mortality at 1000 ppm in [8] of 100%. For the same compound, the mortality at 400 ppm in series [9] (setting [13]) and in series [6] was 100% in each case.

Take `C=CCN1C(=O)N(c2cccc(Cl)c2)CSC1=NC(C)(C)C` [Compound 218]: the Mortality in [1] is reported as 100%. Also, in [2], the mortality at 10 ppm is 100%. The compound also yielded a mortality at 1000 ppm in series [8] of 100%. The mortality at 400 ppm in [9] (setting [13]) and in series [6] was 100% each time.

Turning to `C=CCN1C(=O)N(c2cccc(Cl)c2)CSC1=NCc1ccccc1` [Compound 219], the Mortality in series [7] was found to be 80%; in series [1] it was 100%. The compound further registered a mortality at 1000 ppm in series [8] of 70%. Besides, the mortality at 400 ppm in series [9] (24 h) and in [6] was 100% each time.

Take `CC(C)N1C(=O)N(c2cccc(Cl)c2)CSC1=NC(C)(C)CC(C)(C)C` [Compound 222]: the mortality at 10 ppm in series [4] is 100%. Also, the mortality at 1000 ppm in series [8] worked out at 80%. The mortality at 400 ppm in series [9] (setting [13]) and in series [6] was 100% in each case.

The compound `CC(C)CN1C(=O)N(c2cccc(Cl)c2)CSC1=NC(C)(C)C` [Compound 223] had a mortality at 10 ppm in [2] of 100%. The compound also displayed a mortality at 1000 ppm in [8] of 70%. Further, the mortality at 400 ppm in [9] (setting [13]) and in series [6] was 100% each time.

`CCC(C)N=C1SCN(c2cccc(Cl)c2)C(=O)N1C(C)CC` (centres unmarked) [Compound 224] showed a mortality at 10 ppm in series [2] of 100%. The mortality at 400 ppm in series [10], in [5], in series [9] (setting [13]) and in [6] was 100% each time. Also, the mortality at 1000 ppm in series [8] turned out to be 100%.

In the case of `CC(C)N1C(=O)N(c2cccc(Cl)c2)CSC1=NC1CCCCC1` [Compound 230], the Mortality in series [7] came out at 100%.

Consider `CCCN1C(=O)N(c2cccc(Cl)c2)CSC1=NC(C)(C)C` [Compound 232], for which the Mortality in series [7] stood at 70%. For the same compound, the mortality at 400 ppm in series [6] came to 70%.

`CCCCN1C(=O)N(c2cccc(Cl)c2)CSC1=NC(C)(C)C` [Compound 236] came in with a Mortality in series [7] of 100%. Besides, the mortality at 400 ppm in series [6] was determined as 80%.

By LD50 is commonly meant the dose expected to kill half of the subjects tested. As for `Cc1ccc(N2CSC(=NC(C)(C)C)N(C(C)C)C2=O)cc1` [Compound 318, 2-t-Butylimino-3-isopropyl-5-(p-tolyl)-tetrahydro-1,3,5-thiadiazin-4-one], the mortality at 10 ppm in series [2] came to 90%. Moreover, the mortality at 100 ppm in series [3] came out at 100%; in [12] (100 ppm, 5th-instar larvae, 7 days) it was 100%. Moreover, the LD50 in series [11] is at least 10000 mg/kg. In addition, the mortality at 400 ppm in [10], in [5] and in series [6] was 100% each time. Moreover, the mortality at 1000 ppm in series [8] stood at 100%.

For the compound `CCN=C1SCN(c2cccc(C)c2)C(=O)N1CC` [Compound 324], the Mortality in series [7] was found to be 100%. This compound came in with a mortality at 400 ppm in series [6] of 100%.

`Cc1cccc(N2CSC(=NC(C)(C)C)N(C(C)C)C2=O)c1` [Compound 326] showed a Mortality in series [7] of 100%. Besides, the mortality at 10 ppm in [2] turned out to be 100%. The same compound had a mortality at 100 ppm in series [3] of 100%. For the same compound, the mortality at 400 ppm in series [10], in series [5] and in series [6] was 100% each time.

Consider `CCC(C)N=C1SCN(c2cccc(C)c2)C(=O)N1C(C)CC` (centres unmarked) [Compound 327], for which the Mortality in [7] is recorded as 100%. Moreover, the mortality at 10 ppm in series [2] came out at 90%. The mortality at 100 ppm in [3] was 100%. Further, the mortality at 400 ppm in [10], in series [5] and in series [6] was 100% in each case. The compound also registered a mortality at 1000 ppm in series [8] of 100%.

`Cc1cccc(N2CSC(=NC(C)C)N(Cc3ccccc3)C2=O)c1` [Compound 329] yielded a Mortality in series [7] of 100%.

For the compound `CCc1ccc(N2CSC(=NC)N(C)C2=O)cc1` [Compound 331, 2-methylimino-3-methyl-5-(p-ethylphenyl)-tetrahydro-1,3,5-thiadiazin-4-one], the Mortality in [7] turned out to be 100%.

`CCc1ccc(N2CSC(=NC(C)(C)C)N(C(C)C)C2=O)cc1` [Compound 333, 2-t-butylimino-3-isopropyl-5-(p-ethylphenyl)-tetrahydro-1,3,5-thiadiazin-4-one] came in with a Mortality in series [7] of 100%. The same compound returned a mortality at 10 ppm in [2] of 100%. The mortality at 400 ppm in [10], in series [5] and in [6] was 100% each time.

`CC(C)N=C1SCN(c2ccc([N+](=O)[O-])cc2[N+](=O)[O-])C(=O)N1C(C)C` [Compound 366]: in series [7], the Mortality is reported as 100%.

With `CNC(=O)Oc1cccc2ccccc12` [NAC, 1-naphthyl N-methylcarbamate, reference compound], the mortality at 200 ppm in [12] (read-out: mortality in 7 days after spraying) worked out at 30%.
